Measured values reported in PMC10745505 (Molecules, 2023).
Like-named read-outs stand apart in the source and are kept apart here.

Legend:
[1] = Stability in solution by changes in electronic absorption spectra; assay type: physicochemical; conditions: for behaviour in acid solution: HCl, pH~2, two days; for stability in distilled water: pH~6, two days, C~1 mM
Protocol: Since the compounds are soluble in water, an important factor is their stability in aqueous solutions at different pH. Stability was studied by changes in electronic absorption spectra over two days (C~1 mM, diluted 60 times to record spectra) (Figure 6). […] The most significant changes occur in the acid solution (HCl, pH~2). […] Protonation of the pyrazolate ligands, which occurs in acidic solutions, results in the dissociation of binuclear clusters. […] Unlike the pyrazole, the triazole structure has an additional free nitrogen atom that can be protonated. In this case, protonation of the triazolate ligands and formation of a neutral form [Mo12O28(μ-1,2,4-trz)4(μ-1,2,4-trzH)4] with low solubility apparently occurs. […] The complex can be dissolved back into water by adding any alkali solution, which is confirmed by the preservation of the ^1H NMR spectra (Figure S15). Typically, most POMs are not stable in weakly acidic or alkaline aqueous solutions [26, 27], while the compounds studied show the opposite situation, which is associated with both the structure based on binuclear clusters and their linkages through bridging pyrazolate or triazolate ligands.
Elemental analyses were obtained using a vario MICRO cube analyzer and EuroVector EA3000. Energy-dispersive X-ray spectroscopy (EDS) was performed on a Hitachi TM3000 TableTop SEM (Hitachi High-Technologies Corporation, Tokyo, Japan) with Bruker QUANTAX 70 EDS equipment. FTIR spectra were recorded on a Bruker Vertex 80 as KBr disks. The thermal properties (TGA) were studied on a Thermo Microbalance TG 209 F1 Iris (NETZSCH) from 25 to 800 °C at the heating rate of 10 °C·min^−1 in He flow (30 mL·min^−1). Powder X-ray diffraction patterns were collected on a Philips PW 1820/1710 diffractometer (CuKα radiation, graphite monochromator and Si as an external reference). The absorption spectra (UV–vis) were recorded on an Agilent Cary 60 UV/Vis spectrophotometer.

[2] = tested on: influenza A virus, subtype H5N1 (strain A/chicken/Chelyabinsk region/2KL/Russia/2021); assay type: cell-based
Hep-2 cells = test: Cellular penetration: Mo content in Hep-2 cells by ICP-AES; assay type: cell-based, human; conditions: for Cellular penetration: Hep-2 cells, 30 min to 48 h incubation, ICP-AES
Protocol: (§1) The cells were seeded into 6-well plates at concentration of 5 × 10^5 cells/well. The next day, solutions of 1 and 2 were added to the plates to give final concentrations of 1.0 mM and incubated with cells for 30 min, 2, 6, 24 and 48 h. Then, cells were washed three times with a sterile phosphate buffer. The cells were then removed from the wells with trypsin and centrifuged at 1000 rpm for 5 min. After centrifugation, the number of cells in each sample was calculated. The resulting cell suspension was brought to a volume of 300 µL in a sterile buffer so that each sample contained 0.5 million cells.
(§2) Molybdenum content in cells after incubation times was determined on a high-resolution spectrometer iCAP-6500 (Thermo Scientific, Waltham, MA, USA) with a cyclone-type spray chamber and “SeaSpray” nebulizer. The spectra were obtained by axial plasma viewing. Standard operating conditions of the ICP-AES system were following: power = 1150 W, injector inner diameter = 3 mm, carrier argon flow = 0.7 L min^−1, accessorial argon flow = 0.5 L min^−1, cooling argon flow = 12 L min^−1, number of parallel measurements = 3, and integration time = 5 s.

MRC-5 cells = test: Cellular penetration: Mo content in MRC-5 cells by ICP-AES; assay type: cell-based, human; conditions: for Cellular penetration: MRC-5 cells, 30 min to 48 h incubation, ICP-AES
Protocol: as §1, §2

[3] = tested on: MRC-5 (lung tissue fibroblasts of a human embryo); conditions: read-out: half-maximal cell inhibition concentration (IC50); MRC-5 cells, MTT, 72 h, concentration range up to 2 mM
Description: (§3) MDCK (Madin–Darby canine kidney, ATCC CCL34), MRC-5 (lung tissue fibroblasts of a human embryo, collection code 112) and Hep-2 (human larynx carcinoma) cell lines were obtained from the Federal Budgetary Research Institution State Research Center of Virology and Biotechnology “Vector” Rospotrebnadzor cell culture collection, Russian Federation and cultured in Eagle’s Minimum Essential Medium (EMEM) and Dulbecco’s Modified Eagle’s Medium (DMEM) in relation to 1:1 supplemented with a 10% fetal bovine serum under a humidified atmosphere (5% CO2 and 95% air) at 37 °C.
(§4) The effect of compounds 1, 2 and 3 on the cells metabolic activity was determined using the 3-[4,5-dimethylthiazol-2-yl]-2,5-diphenyltetrazolium bromide (MTT) colorimetric assay. The Hep-2 and MRC-5 cells were seeded into 96-well plates at 7 × 10^3 cells/well in a medium-containing compound with concentrations from 2 to 0.01 mM and then incubated for 72 h under 5% CO2 atmosphere. After that, 10 μL of the MTT solution (final concentration of MTT is 0.5 mg·mL^−1) was added to each well, and the plates were incubated for a further 4 h. The formazan produced was then dissolved in DMSO (100 μL/well). The optical density of the solutions was measured with a Mindray Microplate Reader MR-96A (Mindray, Shenzhen, China) at a wavelength of 492 nm. The percentage of cell viability was calculated by the formula: (optical density of the solution in the wells after incubation with the compounds/optical density of the control solution) × 100%. Wells with cells incubated in a pure nutrient medium were used as a control.

[4] = tested on: Hep-2 (human larynx carcinoma cell line); conditions: read-out: half-maximal cell inhibition concentration (IC50); Hep-2 cells, MTT, 72 h, concentration range up to 2 mM
Description: as §3, §4

[5] = tested on: MDCK cells (Madin–Darby canine kidney cells); conditions: absence of virus, up to 500 μM, 72 h
influenza virus = tested on: influenza virus; set-up: method as in PMID 11825310, PMID 9588843; conditions: usually; cited from earlier work
Solubility = assay type: physicochemical; conditions: compared with the other complexes
Influenza A H1N1 = tested on: Influenza A H1N1; set-up: method as in PMID 24878685; conditions: Influenza A H1N1, incubation time 48h, cited from earlier work
MDCK cells = tested on: MDCK cells; set-up: method as in PMID 24878685; conditions: read-out: IC50 (cytotoxicity against MDCK cells); cited from earlier work
[6] = Hep-2, 1 mM solution (∽2350 µg Mo/5·10^5 cells), 30 minutes
[7] = MRC-5, 1 mM solution (∽2350 µg Mo/5·10^5 cells), 30 minutes

Compound | behaviour in acid solution [1] | stability in distilled water [1] | Quantity of Mo accumulated by cells (Hep-2 cells; [6]) | Quantity of Mo accumulated by cells (Hep-2 cells; Hep-2, 1 mM solution, 2 hours) | Quantity of Mo accumulated by cells (Hep-2 cells; Hep-2, 1 mM solution, 6 hours) | Quantity of Mo accumulated by cells (Hep-2 cells; Hep-2, 1 mM solution, 24 hours) | Quantity of Mo accumulated by cells (Hep-2 cells; Hep-2, 1 mM solution, 48 hours) | Cellular penetration (Hep-2 cells) | Quantity of Mo accumulated by cells (MRC-5 cells; [7]) | Quantity of Mo accumulated by cells (MRC-5 cells; MRC-5, 1 mM solution, 2 hours) | Quantity of Mo accumulated by cells (MRC-5 cells; MRC-5, 1 mM solution, 6 hours) | Quantity of Mo accumulated by cells (MRC-5 cells; MRC-5, 1 mM solution, 24 hours) | Quantity of Mo accumulated by cells (MRC-5 cells; MRC-5, 1 mM solution, 48 hours) | Cellular penetration (MRC-5 cells) | IC50 [3] | IC50 [4] | cytopathic effect on MDCK cells [5] | EC50 (influenza virus) | further results
(NH4)4[Mo12O28(μ-pz)8]·1.5pzH·4.5H2O [Compound 1] | complete destruction | high stability | 0.25 μg Mo/5·105 cells | 0.46 μg Mo/5·105 cells | 0.47 μg Mo/5·105 cells | 0.75 μg Mo/5·105 cells | 0.75 μg Mo/5·105 cells | absence of cell penetration | 0.22 μg Mo/5·105 cells | 0.25 μg Mo/5·105 cells | 0.24 μg Mo/5·105 cells | 0.77 μg Mo/5·105 cells | 0.83 μg Mo/5·105 cells | absence of cell penetration | > 2000 µM | > 2000 µM | do not show any significant cytopathic effect |  | decrease in the absorption intensity ([1]; NaOH, pH~12, two days): ~ 10%; concentrations at which antiviral effect was found ([2]; MDCK cells in presence of H5N1 virus, 72 h, MTT): above 62.5 μM; EC50 ([2]; presence of H5N1 virus, 72 h, nonlinear regression, read-out: EC50 (50% virus-inhibitory effective concentration as indirectly measured by MDCK cell viability)): 82.4 ± 11.4 µM
(NH4)4[Mo12O28(μ-1,2,4-trz)8]·1.5(1,2,4-trzH)·3H2O [Compound 2] | immediately precipitates | high stability | 0.18 μg Mo/5·105 cells | 0.32 μg Mo/5·105 cells | 0.33 μg Mo/5·105 cells | 0.43 μg Mo/5·105 cells | 0.42 μg Mo/5·105 cells | absence of cell penetration | 0.23 μg Mo/5·105 cells | 0.11 μg Mo/5·105 cells | 0.12 μg Mo/5·105 cells | 0.34 μg Mo/5·105 cells | 0.34 μg Mo/5·105 cells | absence of cell penetration | 1810 ± 40 µM | > 2000 µM | do not show any significant cytopathic effect |  | stability in alkaline solution (spectral change) ([1]; NaOH, pH~12, two days): slight change in the absorption intensity; antiviral effect ([2]; MDCK cells in presence of H5N1 virus, concentration range tested up to 500 μM): no effect or insignificant effect
CC(=O)N[C@H]1[C@H]([C@H](O)[C@H](O)CO)OC(C(=O)O)=C[C@@H]1N=C(N)N [zanamivir] |  |  |  |  |  |  |  |  |  |  |  |  |  |  |  |  |  | < 10 µM | 
(NH4)4[Mo12O28(μ-1,2,3-trz)8]·4H2O [Compound 3] |  |  |  |  |  |  |  |  |  |  |  |  |  |  |  |  |  |  | solubility in water (Solubility): significantly lower solubility in water
Cs2K4Na[SiW9Nb3O40] [POM93] |  |  |  |  |  |  |  |  |  |  |  |  |  |  |  |  |  |  | EC50 (Influenza A H1N1; converted from μg/mL, read-out: EC50): ~2.4 µM; EC50 (Influenza A H1N1): 7.4 ± 1.1 mg/L; IC50 (MDCK cells): 140 µM
CCOC(=O)C1=C[C@@H](OC(CC)CC)[C@H](NC(C)=O)[C@@H](N)C1 [oseltamivir] |  |  |  |  |  |  |  |  |  |  |  |  |  |  |  |  |  | < 10 µM | 
